Assay results: patent US11203578B2, “Oxadiazole derivatives for the treatment of genetic diseases due to nonsense mutations” (UNIVERSITA' DEGLI STUDI DIPALERMO, priority 2017, dated 2021)

What was measured:
[1] = tested on: pFLuc-opal (UGA stop mutation); assay: FLuc cell-based readthrough assay in HeLa FLuc-opal transfected cells; settings: 12 μM, 24 hours treatment, pFluc-opal HeLa cells, compared to untreated
Description: The results disclosed in (Pibiri I., Lentini L., Tutone M., Melfi R., Pace A., Di Leonardo A. Exploring the readthrough of nonsense mutations by non-acidic Ataluren analogues selected by ligand-based virtual screening. Eur. J. Med. Chem. 122 (2016) 429-435) have been refined with 3D-QSAR (quantitative structure-activity relationships) pharmacophore modelling. The endpoint to build QSAR models was the luciferase activity known data. These values were converted to pFLUC (−log FLUC) values. In order to find the common pharmacophore hypothesis, we divided the 24 compounds in three different classes of activity related to the FLUC values (Pharm set). We considered as active, compounds with FLUC values >4.52 (ATALUREN FLUC value), as inactives, compounds with FLUC values ≤4.00, and as moderate actives, compounds with 4.39≤FLUC values ≤4,51. Dataset was randomly split into a training set (19 compounds) for models generation, and test set (5 compounds) for the validation of developed models, as reported in Table 1.
To ascertain the effectiveness of the newly synthesized ataluren analogues in promoting the readthrough of premature termination codons was used the FLuc cell-based assay. To this aim HeLa cells were transfected transiently with the plasmids pFLuc-wild type (control) and pFLuc-opal (UGA stop mutation) (NIH Chemical Genomics Center, National Institutes of Health, Bethesda, USA). FLuc gene expression was then measured by luminescence.

nsCFTR(G542X-opal) = assay: Immunofluorescence analysis of CFTR in nsCFTR(G542X-opal) FRT cells; assay type: cell-based, human; settings: 12 μM, 24 hours
Description: To work in a cell system containing exclusively nonsense mutations and in particular the more representative CFTR nonsense mutation, the G542X, FRT cells were engineered with a vector expressing nsCFTR (nonsense). To this aim, Site Directed Mutagenesis of the full-length CFTR cDNA cloned in the pTracer-Zeocin (pTCF-wild type) vector (Gaslini Hospital Genova, Italy) was performed (CFTR DNA available at NCBI Reference Sequence: NG_016465.4). To substitute the Glicine 542 coding codon GGA with a stop codon, was introduced a single nucleotide mutation. The first guanine of the codon, position 1624 of the cDNA, was changed in a thymine to introduce an opal nonsense mutation. We amplified the plasmid harbouring cDNA with the following primers: […]
To further evaluate the efficacy of NV914, NV848, NV930, FRT cells were transfected with the pTRACER vectors containing either the wild type CFTR or the nsCFTR(G542X-opal) cDNA and selected by Zeocin resistance. The advantage of the use of these cells is that they don't express cAMP dependent channels (as CFTR) or CFTR protein. The expression of the human CFTR wild type and nsCFTR(G542X-opal) in transfected FRT cells was evaluated by qRT-PCR and Western blot, as shown in FIG. 5.
The same FRT cells were then treated with NV914, NV848, NV930 (12 μM), and ATALUREN (12 μM) (as positive control) for 24 hours and the expression of the human CFTR wild type and nsCFTR(G542X-opal) was again evaluated by immunofluorescence analysis.
FRT cells transfected with a pTracer nsCFTR-G542X-opal vector the treated with NV848, NV914, NV930 (12 μM), and ATALUREN (12 μM) as positive control, for 24 hours and the expression of the human CFTR wild type and nsCFTR (nsCFTR-G542X-opal) was evaluated by immunofluorescence analysis.
In details, immunofluorescence analysis was used to detect the CFTR protein following the readthrough of the UGA stop codon in nsCFTR(opal) FRT cells untreated, treated with G418 as positive contro) and with PTC124 and NV848, Nv914, NV930 for 24 h. […] Nuclei (blue) were DAPI stained.

HeLa cells = assay: Cytotoxic effects and impact on cell proliferation in HeLa cells; assay type: cell-based; settings: 12 μM
Description: HeLa cells were used to determine the possible cytotoxic effects of our compounds and the impact on cell proliferation. In FIG. 7 are reported the percentages of dead cells and proliferating cells after treatment with 12 μM compounds and 12 μM ATALUREN.

nsCFTR-Q552X ochre = assay: Immunofluorescence analysis of CFTR in nsCFTR-Q552X ochre FRT cells; assay type: cell-based, human; settings: 12 μM, 24 hours
Description: (§1) FRT cells were also engineered with a vector expressing nsCFTR (nonsense). To this aim, Site […] Directed Mutagenesis of the full-length CFTR cDNA cloned in the pTracer Zeocin (pTCF-wild type) vector (provided by Gaslini Hospital Genova, Italy) was performed, the CFTR DNA is available at NCBI Reference Sequence NG_016465.4. With the aim of introducing in the CFTR cDNA single base mutations c1654t or c1657t to convert, respectively, […] 552 (caa>taa ochre) or Arginine 553 (cga>tga opal) in nonsense codons, site-directed mutagenesis of the full-length cDNA cloned in the pTracer Zeocin (pTCF-wild type) vector (provided by Gaslini Hospital Genova, Italy) was performed (CFTR DNA available at NCBI Reference Sequence: NG_016465.4). The pTCF-wild type vector was amplified by PCR with the following primers: […]
(§2) To further evaluate the efficacy of NV848, NV914 and NV930 FRT cells were transfected with the pTracer vectors containing either the WT-CFTR (CFTRWT) or the R553X-CFTR and the Q552X-CFTR (nsCFTR-R553X-opal, nsCFTR-Q552X ochre) human cDNA and selected by Zeocin resistance. The expression of the CFTRWT and nsCFTR CFTR (nsCFTR-R553X-opal, nsCFTR-Q552X ochre) in transfected FRT cells was evaluated by qRT-PCR. The nsCFTR-Q552X ochre, nsCFTR-R553X-opal FRT transfected cells were treated with NV848, (12 μM), and ATALUREN (12 μM) as positive control, for 24 hours and the expression of the human CFTR was evaluated by immunofluorescence analysis.

nsCFTR-R553X-opal = assay: Immunofluorescence analysis of CFTR in nsCFTR-R553X-opal FRT cells; assay type: cell-based, human; settings: 12 μM, 24 hours
Description: as §1, §2

| SMILES | luciferase activity [1] | CFTR full-length expression and membrane localization (nsCFTR(G542X-opal)) | dead cells (HeLa cells; 24 h) [%] | dead cells (HeLa cells; 72 h) [%] | CFTR full-length expression and membrane localization (nsCFTR-Q552X ochre) | CFTR full-length expression and membrane localization (nsCFTR-R553X-opal) |
| --- | --- | --- | --- | --- | --- | --- |
| CC(=O)Nc1noc(C)n1 [NV848, 3-acetylamino-5-methyl-1,2,4-oxadiazole] | significant increase of luciferase activity | induced the CFTR full-length expression and membrane localization | 7 | 6 | induced the CFTR full-length expression and membrane localization | induced the CFTR full-length expression and membrane localization |
| O=C(Nc1noc(-c2c(F)c(F)c(F)c(F)c2F)n1)c1c(F)c(F)c(F)c(F)c1F [NV914, 2,3,4,5,6-pentafluoro-N-(5-(perfluorophenyl)-1,2,4-oxadiazol-3-yl)benzamide] | significant increase of luciferase activity | induced the CFTR full-length expression and membrane localization | 5 | 2 | induced the CFTR full-length expression and membrane localization | induced the CFTR full-length expression and membrane localization |
| CCOC(=O)c1noc(-c2ccccc2)n1 [NV930, ethyl 5-phenyl-1,2,4-oxadiazole-3-carboxylate] | significant increase of luciferase activity | induced the CFTR full-length expression and membrane localization | 2 | 4 | induced the CFTR full-length expression and membrane localization | induced the CFTR full-length expression and membrane localization |
